# Results as given in the supplement of paper PMC10307832.
# How the values were obtained:
# Assay in all cases: relative viability (nuclei count vs DMSO), 5 days (fraction); higher = more cells survive
# NCI-H2347 = test system: NCI-H2347
# Summary of the method: (§1)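 One day after seeding in 1536-well plates, lung cancer cell lines were dosed by pin tool. Dosing was either single-drug or a fixed anchor-drug dose plus five library-drug doses (not always all listed) in √10 steps. After 5 days, nuclei were stained in one fix-and-stain step and counted on 4× images, and relative viability is the nuclei count of treated wells over that of vehicle wells, given as the median of duplicate plates.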
# NCI-H661 = test system: NCI-H661
# Summary of the method: as §1
# NCI-H727 = test system: NCI-H727
# Summary of the method: as §1
# NCI-H2126 = test system: NCI-H2126
# Summary of the method: as §1
# NCI-H322M = test system: NCI-H322M
# Summary of the method: as §1
# PC-14 = test system: PC-14
# Summary of the method: as §1
# EMC-BAC-2 = test system: EMC-BAC-2
# Summary of the method: as §1
# EPLC-272H = test system: EPLC-272H
# Summary of the method: as §1
# NCI-H2023 = test system: NCI-H2023
# Summary of the method: as §1
# NCI-H1993 = test system: NCI-H1993
# Summary of the method: as §1
# SW 1573 = test system: SW 1573
# Summary of the method: as §1
# NCI-H2085 = test system: NCI-H2085
# Summary of the method: as §1
# NCI-H1563 = test system: NCI-H1563
# Summary of the method: as §1
# LCLC-97TM1 = test system: LCLC-97TM1
# Summary of the method: as §1
# NCI-H647 = test system: NCI-H647
# Summary of the method: as §1
# NCI-H1734 = test system: NCI-H1734
# Summary of the method: as §1
# NCI-H1915 = test system: NCI-H1915
# Summary of the method: as §1
# NCI-H2009 = test system: NCI-H2009
# Summary of the method: as §1
# LXF-289 = test system: LXF-289
# Summary of the method: as §1
# HOP-62 = test system: HOP-62
# Summary of the method: as §1
# H3255 = test system: H3255
# Summary of the method: as §1
# SK-LU-1 = test system: SK-LU-1
# Summary of the method: as §1
structure (smiles),measurement,setting,value
COc1nc(C)cnc1NS(=O)(=O)c1cccnc1-c1ccc(-c2nnco2)cc1 [Zibotentan] + C[C@]1(O)C[C@@H](c2nc(-c3ccc4ccc(-c5ccccc5)nc4c3)c3c(N)nccn32)C1 [Linsitinib] (partner 1 µM),relative viability,NCI-H2347; first compound 0.08 µM,0.982
same,relative viability,NCI-H2347; first compound 0.253 µM,0.833
same,relative viability,NCI-H2347; first compound 0.8 µM,1.11
same,relative viability,NCI-H2347; first compound 2.53 µM,0.969
same,relative viability,NCI-H661; first compound 0.08 µM,0.545
same,relative viability,NCI-H661; first compound 0.253 µM,0.486
same,relative viability,NCI-H661; first compound 0.8 µM,0.518
same,relative viability,NCI-H661; first compound 2.53 µM,0.68
same,relative viability,NCI-H727; first compound 0.08 µM,0.208
same,relative viability,NCI-H727; first compound 0.253 µM,0.322
same,relative viability,NCI-H727; first compound 0.8 µM,0.248
same,relative viability,NCI-H727; first compound 2.53 µM,0.314
same,relative viability,NCI-H2126; first compound 0.08 µM,0.733
same,relative viability,NCI-H2126; first compound 0.253 µM,0.625
same,relative viability,NCI-H2126; first compound 0.8 µM,0.745
same,relative viability,NCI-H2126; first compound 2.53 µM,0.716
same,relative viability,NCI-H322M; first compound 0.08 µM,0.912
same,relative viability,NCI-H322M; first compound 0.253 µM,0.898
same,relative viability,NCI-H322M; first compound 0.8 µM,0.933
same,relative viability,NCI-H322M; first compound 2.53 µM,0.843
same,relative viability,PC-14; first compound 0.08 µM,1
same,relative viability,PC-14; first compound 0.253 µM,0.888
same,relative viability,PC-14; first compound 0.8 µM,0.937
same,relative viability,PC-14; first compound 2.53 µM,1.02
same,relative viability,EMC-BAC-2; first compound 0.08 µM,0.895
same,relative viability,EMC-BAC-2; first compound 0.253 µM,0.785
same,relative viability,EMC-BAC-2; first compound 0.8 µM,0.823
same,relative viability,EMC-BAC-2; first compound 2.53 µM,0.905
same,relative viability,EPLC-272H; first compound 0.08 µM,1.06
same,relative viability,EPLC-272H; first compound 0.253 µM,1.23
same,relative viability,EPLC-272H; first compound 0.8 µM,1.33
same,relative viability,EPLC-272H; first compound 2.53 µM,1.22
same,relative viability,NCI-H2023; first compound 0.08 µM,0.57
same,relative viability,NCI-H2023; first compound 0.253 µM,0.544
same,relative viability,NCI-H2023; first compound 0.8 µM,0.743
same,relative viability,NCI-H2023; first compound 2.53 µM,0.654
same,relative viability,NCI-H1993; first compound 0.253 µM,0.838
same,relative viability,NCI-H1993; first compound 0.8 µM,0.75
same,relative viability,NCI-H1993; first compound 2.53 µM,0.85
same,relative viability,SW 1573; first compound 0.08 µM,1.04
same,relative viability,SW 1573; first compound 0.253 µM,0.783
same,relative viability,SW 1573; first compound 0.8 µM,0.863
same,relative viability,SW 1573; first compound 2.53 µM,0.878
same,relative viability,NCI-H2085; first compound 0.08 µM,0.852
same,relative viability,NCI-H2085; first compound 0.253 µM,0.818
same,relative viability,NCI-H2085; first compound 0.8 µM,0.944
same,relative viability,NCI-H2085; first compound 2.53 µM,0.944
same,relative viability,NCI-H1563; first compound 0.08 µM,1.17
same,relative viability,NCI-H1563; first compound 0.253 µM,0.789
same,relative viability,NCI-H1563; first compound 0.8 µM,1.39
same,relative viability,NCI-H1563; first compound 2.53 µM,1.34
same,relative viability,LCLC-97TM1; first compound 0.08 µM,0.152
same,relative viability,LCLC-97TM1; first compound 0.253 µM,0.171
same,relative viability,LCLC-97TM1; first compound 0.8 µM,0.175
same,relative viability,LCLC-97TM1; first compound 2.53 µM,0.215
same,relative viability,NCI-H647; first compound 0.08 µM,1.12
same,relative viability,NCI-H647; first compound 0.253 µM,1.14
same,relative viability,NCI-H647; first compound 0.8 µM,1.11
same,relative viability,NCI-H647; first compound 2.53 µM,1.15
same,relative viability,NCI-H1734; first compound 0.08 µM,1.01
same,relative viability,NCI-H1734; first compound 0.253 µM,0.815
same,relative viability,NCI-H1734; first compound 0.8 µM,0.936
same,relative viability,NCI-H1734; first compound 2.53 µM,0.975
same,relative viability,NCI-H1915; first compound 0.08 µM,0.917
same,relative viability,NCI-H1915; first compound 0.253 µM,1.19
same,relative viability,NCI-H1915; first compound 0.8 µM,1.11
same,relative viability,NCI-H1915; first compound 2.53 µM,1.08
same,relative viability,NCI-H2009; first compound 0.08 µM,1.14
same,relative viability,NCI-H2009; first compound 0.253 µM,1.05
same,relative viability,NCI-H2009; first compound 0.8 µM,1.2
same,relative viability,NCI-H2009; first compound 2.53 µM,1.22
same,relative viability,LXF-289; first compound 0.08 µM,1.01
same,relative viability,LXF-289; first compound 0.253 µM,0.998
same,relative viability,LXF-289; first compound 0.8 µM,0.969
same,relative viability,LXF-289; first compound 2.53 µM,1.01
same,relative viability,HOP-62; first compound 0.08 µM,0.805
same,relative viability,HOP-62; first compound 0.253 µM,1.06
same,relative viability,HOP-62; first compound 0.8 µM,0.992
same,relative viability,HOP-62; first compound 2.53 µM,1.29
same,relative viability,H3255; first compound 0.08 µM,1.02
same,relative viability,H3255; first compound 0.253 µM,0.998
same,relative viability,H3255; first compound 0.8 µM,0.899
same,relative viability,H3255; first compound 2.53 µM,0.983
same,relative viability,SK-LU-1; first compound 0.08 µM,0.833
same,relative viability,SK-LU-1; first compound 0.253 µM,0.888
same,relative viability,SK-LU-1; first compound 0.8 µM,1.15
same,relative viability,SK-LU-1; first compound 2.53 µM,1.22
